Experiments:
OCT2/SLC22A2 = target: T1, OCT2/SLC22A2 (Homo sapiens, UniProt O15244); assay: OCT2/SLC22A2 activity (basolateral ASP uptake); format: cell-based
T1 construct: investigated in ciPTEC-14.4 by measuring the activity and expression of the solute carrier tansporter (SLC) OCT2/SLC22A2; endogenous in cells; host or cells: ciPTEC-14.4 grown on Transwell filters
T1 sequence (O15244 1-555): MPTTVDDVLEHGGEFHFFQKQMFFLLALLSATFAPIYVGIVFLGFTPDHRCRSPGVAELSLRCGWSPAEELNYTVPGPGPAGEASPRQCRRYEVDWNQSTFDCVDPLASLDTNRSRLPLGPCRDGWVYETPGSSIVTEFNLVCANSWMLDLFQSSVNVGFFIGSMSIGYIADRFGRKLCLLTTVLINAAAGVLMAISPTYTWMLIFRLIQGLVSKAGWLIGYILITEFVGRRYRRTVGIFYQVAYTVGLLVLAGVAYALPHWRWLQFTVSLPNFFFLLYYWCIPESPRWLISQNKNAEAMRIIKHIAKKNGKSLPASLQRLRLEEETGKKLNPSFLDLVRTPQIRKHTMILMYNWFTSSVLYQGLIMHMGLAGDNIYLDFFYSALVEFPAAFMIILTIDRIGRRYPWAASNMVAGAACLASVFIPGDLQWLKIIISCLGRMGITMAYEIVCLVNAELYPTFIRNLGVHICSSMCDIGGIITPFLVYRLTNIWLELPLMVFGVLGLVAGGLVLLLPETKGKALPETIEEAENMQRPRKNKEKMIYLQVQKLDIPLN
Description: Transport of xenobiotics across the basolateral membrane was investigated in ciPTEC-14.4 by measuring the activity and expression of the solute carrier tansporter (SLC) OCT2/SLC22A2 using a method adapted from Brown et al. Cells were grown on Transwell®-Clear polyester membranes as described before. Activity of OCT2 was measured by incubating 1 μM fluorescent OCT2 substrate 4-(4-(dimethylamino)styryl)-N-methylpyridinium iodide (ASP, Invitrogen) in Hepes-Tris buffer for 1 min at 37° C. at the basal compartment. To inhibit OCT2 mediated uptake, cells were exposed to 100 μM tetrapentylammonium (TPA) at both apical and basal compartments for 10 min prior to uptake of ASP. Additionally, one set of experiments was performed at 4° C. After incubation, transport was arrested using 1 mM ice-cold TPA. Cells were homogenized using 250 μl Hepes-Tris-Triton (0.1%) buffer for 30 min, followed by analyzing fluorescence intensity (excitation 450 nm, emission 642 nm) using Victor3 Multiplate Reader (Perkin Elmer Inc.). Data are expressed as mean+i-SE.

[1] = system: sodium-dependent transporters NaPi-IIa (SLC34A1) and NaPi-IIc (SLC34A3); assay: Sodium-dependent phosphate uptake (32PO4); format: cell-based, human
Description: Phosphate uptake was performed in confluent monolayers using 32PO4 (Perkin Elmer, Waltham Mass., USA) as described earlier. Cells cultured for 10 days at 37° C. were incubated with 0.2 mM KH2PO4 (10 μCi/ml) for 5 min in four independent experiments, in the presence of 137 mM sodium or 137 mM NMDG to study sodium-dependent transport. Additionally, time- (0.5; 1; 2; 5; 10; 15; 30 or 60 min) and concentration-dependent (0.02; 0.07; 0.22; 0.66 or 2 mM PO4) uptake was studied. Data are expressed as mean+/−SE.
(§1) Michaelis-Menten curve fitting for calculation of Km and Vmax values was performed by non-linear regression analysis using GraphPad Prism 4.03 software. Differences in substrate transport in presence or absence of inhibitors or unlabelled analogues were assessed by a paired t-test.

[2] = system: opossum kidney (OK) cells; conditions: reference [20], read-out: Km of apical phosphate transport; cited from earlier work
ciPTEC-14.4 = assay: Albumin uptake by endocytosis (BSA-FITC uptake); format: cell-based, human
Description: The ability of ciPTEC-14.4 to reabsorb albumin was investigated by the incubation of confluent monolayers in 24 well plates with 50 μg/ml BSA-FITC (Sigma-Aldrich) for 30 min at 37° C. unless described otherwise. Uptake was arrested using ice-cold PBS and cells were detached using trypsin, fixed by paraformaldehyde (0.5%) in PBS and analyzed using flow cytometry or immuno-fluorescence microscopy. Concentration- and temperature-dependent uptake, was investigated using a concentration range BSA-FITC (0; 3.7; 11; 33; 100; 300 μg/ml) at 37° C. and on ice for 30 min. Uptake inhibition was studied in three independent experiments by incubating the cells with BSA-FITC (50 μg/ml) in addition of excess unlabelled BSA (10 mg/ml) or recombinant RAP (1 μM), which was a kind gift of Dr. M. Nielsen (University of Aarhus, Denmark). Uptake inhibition by RAP was further examined using a dilution range of RAP. BSA uptake in saturation experiments are plotted as mean fluorescence intensity and in inhibition experiments as mean (+/−SE) percentage uptake compared to control condition.
as §1

OK cells = conditions: reference [12]; cited from earlier work

With `CN(C)c1ccc(/C=C/c2cc[n+](C)cc2)cc1` [ASP, 4-(4-(dimethyl-amino)styryl)-N-methylpyridinium iodide] as the molecule, how does the inhibition at 1 min, 1 μM (OCT2/SLC22A2) read?
Its inhibition at 1 min, 1 μM is 30%.

For `CCCCC[N+](CCCCC)(CCCCC)CCCCC` [TPA, tetrapentylammonium], which inhibition at 1 min, 100 μM (OCT2/SLC22A2; 100 μM TPA, 1 μM ASP, 1 min 37° C., basal compartment, p<0.05, read-out: inhibition of ASP transport) is on record?
Its inhibition at 1 min, 100 μM is 36%.

Which “decrease of phosphate uptake in the absence of sodium” value ([1]; 0.2 mM Pi, 5 min, NMDG as sodium replacement, p<0.001) does the source give for `O=P([O-])(O)O.[K+]` [phosphate, KH2PO4] here?
The value was “approximately 86%”.

What about the Km ([1]; ciPTEC-14.4, read-out: apparent Km of sodium-dependent phosphate uptake) of the same molecule?
The Km was 120 µM.

And the Km [2]?
Its Km is 370 µM.

Which “apparent Km of BSA-FITC uptake” value (ciPTEC-14.4; ciPTEC-14.4, passage 20-25, 30 min, 37° C.) does the source give for “BSA-FITC: FITC labelled bovine serum albumin” here?
Its value is 126 µg/mL.

Which “apparent Km of albumin uptake” value (OK cells) does the source give for albumin here?
Its value is 20 µg/mL.

Which “inhibition of BSA-FITC uptake” value (ciPTEC-14.4; 200-fold excess unlabelled (10 mg/ml), BSA-FITC 50 μg/ml, p<0.01) does the source give for “unlabelled FITC: excess unlabelled bovine serum albumin used as competitor of BSA-FITC uptake” here?
Its value is 54%.

B1: RAP: recombinant receptor associated protein, known inhibitor of albumin endocytosis by binding to multi-ligand receptor megalin (protein, UniProt P30533 35-357, looked up)
Alpha-2-macroglobulin …: YSREKNQPKPSPKRESGEEFRMEKLNQLWEKAQRLHLPPVRLAELHADLKIQERDELAWKKLKLDGLDEDGEKEARLIRNLNVILAKYGLDGKKDARQVTSNSLSGTQEDGLDDPRLEKLWHKAKTSGKFSGEELDKLWREFLHHKEKVHEYNVLLETLSRTEEIHENVISPSDLSDIKGSVLHSRHTELKEKLRSINQGLDRLRRVSHQGYSTEAEFEEPRVIDLWDLAQSANLTDKELEAFREELKHFEAKIEKHNHYQKQLEIAHEKLRHAESVGDGERVSRSREKHALLEGRTKELGYTVKKHLQDLSGRISRARHNEL
Which “inhibition of BSA-FITC uptake” value (ciPTEC-14.4; 1 μM RAP, BSA-FITC 50 μg/ml, 30 min 37° C., p<0.05) does the source give for B1 here?
The value was 41%.

What about the “inhibition of BSA-FITC uptake, dilution range of RAP” value (ciPTEC-14.4; BSA-FITC 50 μg/ml) of the same molecule?
Its value is “inhibited the uptake of BSA-FITC in a concentration-dependent manner”.
